In patent publication US20150158810A1, “PREVENTION OR SUPPRESSION OF CYRSTALLISATION OF BORIC ACID PRESENT IN AN AQUEOUS PHASE” (COMMISSARIAT À L'ÉNERGIE ATOMIQUE ET AUX ÉNERGIES …, priority 2012, published 2015):

What was measured:
[1] = crystallization of boric acid in aqueous phase, temperature cycle P (with a penalty); type: physicochemical
Description: (§1) The tests described in the examples hereafter are conducted by means of a device of the type of the one illustrated in the single FIGURE.
(§2) The device consists of a beaker 10 with a double glass wall 11, inside which flows a heat transfer fluid 12. The beaker 10 also contains a U-shaped metal tube 13, which contains a circulating heat transfer fluid 14.
(§3) The temperatures of the heat transfer fluids 12 and 14 are each adjusted independently of the other, by a heat generator (not shown in the single FIGURE).
(§4) However, the temperature of the heat transfer fluid 14 is adjusted so that it is always strictly less than that of the heat transfer fluid 12, typically lower by 1° C. to 10° C. If it is assumed that heat conduction of the material making up the metal tube 13 occurs without any notable loss, the walls of the tube 13 […] thus form a so-called ? cold ? element.
(§5) Two temperature cycles may be applied to an aqueous phase 15 containing boric acid, which is poured into the beaker 10.
A temperature cycle ? P ? […]
(§6) Regardless of the relevant temperature cycle, a crystallization rate is defined at the end of one of these temperature cycles, which corresponds to the ratio of the mass of boric acid crystals measured at the end of this cycle, to the total initially introduced mass of boric acid.

[2] = crystallization of boric acid in aqueous phase, temperature cycle N; type: physicochemical
Description: as §1, §2, §3, §4, §5
A temperature cycle ? […]
as §6

OCC(CO)(CO)CO [pentaerythritol]
reduction of the crystallization of boric acid in an aqueous phase in presence of the compound [1]: large reduction | reduction in the crystallization of boric acid in an aqueous phase in presence of the compound [2]: appreciable reduction

NC(CO)(CO)CO [Tris, 2-amino-2-(hydroxymethyl)-propane-1,3-diol]
reduction in the crystallization of boric acid in an aqueous phase in presence of the compound [2]: appreciable reduction
